We go through one molecule from patent US11932652B2, “Pyrrolidinyl urea derivatives and application thereof in TrkA-related diseases” (ZHANGZHOU PIEN TZE HUANG PHARMACEUTICAL CO., LTD., priority 2018, dated 2024).

Where only a bound is given, the exact number is not on record here.

The assay has as its target T1, CYP2C19 (Homo sapiens, UniProt P33261).
T1 construct: from tissue; host or cells: human liver microsomes
Nature of the assay: Cytochrome P450 isozyme inhibitory activity test, CYP2C19. It is filed as in vitro ADME. The settings on record: heading: Cytochrome P450 isozyme IC50, CYP2C19; human liver microsome. The procedure: Determination of the inhibitory activity of the test compound on different human cytochrome P450 isozymes.
The test compound, standard inhibitor (100×final concentration), and a mixed substrate working solution were prepared; the microsome frozen in −80° C. refrigerator was thawed. 2 μL of the test compound and standard inhibitor solution was added to the corresponding wells, and at the same time 2 μL of the corresponding solvent was added to the non-inhibitor control wells (NIC) and blank control wells (Blank) wells; then 20 μL of mixed substrate solution was added to the corresponding wells, except for the Blank wells (20 μL of PB was added to the Blank wells); a human liver microsome solution was prepared (put back into the refrigerator immediately after using and marking the date), and then 158 μL of the human liver microsome solution was added to all wells; the above sample plate was placed in a 37° C. water bath for pre-incubation, then the coenzyme factor (NADPH) solution was prepared; 10 minutes later, 20 μL of the NADPH solution was added to all wells, and the sample plate was shaken well, placed in a 37° C. water bath and incubated for 10 minutes; at the corresponding time point, 400 μL of cold acetonitrile solution (internal standard: 200 ng/mL tolbutamide and labetalol) was added to terminate the reaction; the sample plate was evenly mixed, centrifuged at 4000 rpm for 20 minutes to precipitate proteins; 200 μL of the supernatant was added to 100 μL of water, shook well, and tested by LC/MS/MS.

T1 sequence (P33261 whole entry): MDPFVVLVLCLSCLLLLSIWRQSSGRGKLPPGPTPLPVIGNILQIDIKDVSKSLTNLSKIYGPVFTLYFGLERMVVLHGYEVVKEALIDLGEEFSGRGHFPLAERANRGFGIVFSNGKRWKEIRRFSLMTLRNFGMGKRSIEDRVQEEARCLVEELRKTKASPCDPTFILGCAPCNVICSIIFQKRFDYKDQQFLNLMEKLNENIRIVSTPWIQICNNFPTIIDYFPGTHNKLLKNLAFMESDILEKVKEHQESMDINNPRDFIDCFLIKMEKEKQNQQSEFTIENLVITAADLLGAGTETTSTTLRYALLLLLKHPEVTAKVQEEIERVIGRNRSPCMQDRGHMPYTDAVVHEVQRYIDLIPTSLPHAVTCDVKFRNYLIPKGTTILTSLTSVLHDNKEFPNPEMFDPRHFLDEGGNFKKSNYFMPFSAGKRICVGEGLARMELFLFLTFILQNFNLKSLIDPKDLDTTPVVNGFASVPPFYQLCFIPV

Turning to `COCCN1C[C@@H](n2ccc(F)c2)[C@H](NC(=O)Nc2c(C)c(-c3cnc(C4(F)COC4)nc3)nn2-c2ccccc2)C1` [Compound 7], the IC50 is > 50 µM.
